What all share (assay type): in vivo
The test system of series [1] is Monochoria vaginalis. Briefly: Test Example 1: herbicidal activity, application before weed generation in submerged conditions. The following applies: Application herbicide amount 320 g/ha; Seventeenth Table. The gist of the method:
(§1)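 Pre-emergence water-surface application under 4 cm flooding, same day as sowing, with rice transplanted at 2.5 leaf stage. Dose given as g/ha. Plants grown at 25° C. to 30° C. and rated three weeks later on a 0 (≤5%) to 5 (≥90%) herbicidal-ratio scale.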

The test system of series [2] is Echinochloa oryzacola Vasing. Described as above. The following applies: Application herbicide amount 320 g/ha; Seventeenth Table. In a few lines:
as §1

Series [3] concerns Scirpus juncoides. Described as above. Conditions: Application herbicide amount 320 g/ha; Seventeenth Table. The gist of the method: as §1
Series [4] concerns Glycine max. Briefly: Test Example 4: effect on crop by application to foliage (diluvial soil, plastic box). Conditions: 320 g/ha; for effect on crop, c (Glycine max): application to foliage. The gist of the method:
(§2)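 Seeds sown in sterilized diluvial soil, covered ~1.5 cm, grown 14 days in greenhouse at 25° C. to 30° C. Emulsion formulation diluted in water to set rate (g/ha) and sprayed onto stems and leaves. Effect scored visually 3 weeks later on 0–5 scale (5 = ≥90% herbicidal ratio, 0 = ≤5%).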

The subject of series [5] is Beta vulgaris ssp. vulgaris. The description is as above. The following applies: 320 g/ha; for effect on crop, f (Beta vulgaris ssp. vulgaris): application to foliage. The gist of the method: as §2
The test system of series [6] is Triticum aestivum. The description is as above. Conditions: 320 g/ha; for effect on crop, e (Triticum aestivum): application to foliage. The gist of the method:
as §2

Series [7] concerns directly sowed Oryza sativa. Described as above. Conditions: 320 g/ha; for effect on crop, d (directly sowed Oryza sativa): application to foliage. The gist of the method: as §2
The subject of series [8] is Brassica campestris L. The description is as above. Conditions: 320 g/ha; for effect on crop, g (Brassica campestris L.): application to foliage. The gist of the method: as §2
Series [9] deals with Digitaria ciliaris. In words: Test Example 4: herbicidal effect by application to foliage (diluvial soil, plastic box). The following applies: 320 g/ha; for herbicidal effect, F (Digitaria ciliaris): application to foliage. The gist of the method: as §2
The test system of series [10] is Galium spurium. Described as above. The following applies: 320 g/ha; for herbicidal effect, Q (Galium spurium): application to foliage. The gist of the method:
as §2

In series [11] the test system is Abutilon theophrasti. The series is described as above. The following applies: 320 g/ha; for herbicidal effect, M (Abutilon theophrasti): application to foliage. The gist of the method: as §2
Series [12] deals with Avena fatua. The series is described as above. The following applies: 320 g/ha; for herbicidal effect, I (Avena fatua): application to foliage. The gist of the method: as §2
Series [13] deals with Stellaria media. The series is described as above. Conditions: 320 g/ha; for herbicidal effect, P (Stellaria media): application to foliage. In a few lines: as §2
Series [14] deals with Alopecurus myosuroides. The series is described as above. The following applies: 320 g/ha; for herbicidal effect, J (Alopecurus myosuroides): application to foliage. The gist of the method: as §2
In series [15] the test system is Lolium multiflorum Lam. Described as above. The following applies: 320 g/ha; for herbicidal effect, K (Lolium multiflorum Lam.): application to foliage. In a few lines: as §2
Series [16] relates to Amaranthus retroflexus. Described as above. Conditions: 320 g/ha; for herbicidal effect, N (Amaranthus retroflexus): application to foliage. In a few lines: as §2
In series [17] the test system is Setaria viridis. The description is as above. Conditions: 320 g/ha; for herbicidal effect, G (Setaria viridis): application to foliage. The gist of the method:
as §2

Series [18] has as its system Apera spica-venti. The series is described as above. The following applies: 320 g/ha; for herbicidal effect, L (Apera spica-venti.): application to foliage. In a few lines:
as §2

In series [19] the test system is Echinochloa crus-galli var. crus-galli. Described as above. Conditions: 320 g/ha; for herbicidal effect, H (Echinochloa crus-galli var. crus-galli): application to foliage. In a few lines: as §2
For series [20], the system named is Veronica persica. The description is as above. Conditions: application to foliage, 320 g/ha. The gist of the method:
as §2

Series [21] relates to Chenopodium album. The description is as above. The following applies: 320 g/ha; for herbicidal effect, O (Chenopodium album): application to foliage. In a few lines: as §2
Series [22] deals with Zea mays. Briefly: Test Example 4: effect on crop by application to foliage (diluvial soil, plastic box). The following applies: foliage application, 320 g/ha. In a few lines:
as §2

Turning to `Cn1nnnc1NC(=O)c1ccc(C(F)(F)F)n2c(NCC(F)(F)F)nnc12` [2-081], the “C: Monochoria vaginalis (herbicidal effect grade)” value (“C: Monochoria vaginalis” for short) in [1] is 4 (Herbicidal ratio of 70% or more and less than 90%). The “A: Echinochloa oryzicola Vasing. (herbicidal effect grade)” value in [2] was 4 (Herbicidal ratio of 70% or more and less than 90%). Further, the “B: Scirpus juncoides (herbicidal effect grade)” value (“B: Scirpus juncoides” below) in [3] is 3 (Herbicidal ratio of 40% or more and less than 70%). In addition, the “effect on crop, c (Glycine max)” value in series [4] is on record as 0 (Herbicidal ratio of 5% or less (almost no effect)). For the same compound, the “effect on crop, f (Beta vulgaris ssp. vulgaris)” value in series [5] is recorded as 5 (Herbicidal ratio of 90% or more (almost completely withered)). Moreover, in [6], the “effect on crop, e (Triticum aestivum)” value was 2 (Herbicidal ratio of 20% or more and less than 40%). Further, in [7], the “effect on crop, d (directly sowed Oryza sativa)” value was 3 (Herbicidal ratio of 40% or more and less than 70%). Further, the “effect on crop, g (Brassica campestris L.)” value in series [8] was 4 (Herbicidal ratio of 70% or more and less than 90%). Also, the “herbicidal effect, F (Digitaria ciliaris)” value in series [9] was 4 (Herbicidal ratio of 70% or more and less than 90%). For the same compound, the “herbicidal effect, Q (Galium spurium)” value in series [10] was 3 (Herbicidal ratio of 40% or more and less than 70%). Besides, in [11], the “herbicidal effect, M (Abutilon theophrasti)” value is 4 (Herbicidal ratio of 70% or more and less than 90%). The “herbicidal effect, I (Avena fatua)” value in series [12] was 3 (Herbicidal ratio of 40% or more and less than 70%). Moreover, in series [13], the “herbicidal effect, P (Stellaria media)” value is 5 (Herbicidal ratio of 90% or more (almost completely withered)). In addition, the “herbicidal effect, J (Alopecurus myosuroides)” value in series [14] is 1 (Herbicidal ratio of 5% or more and less than 20%). Further, the “herbicidal effect, K (Lolium multiflorum Lam.)” value in series [15] was 1 (Herbicidal ratio of 5% or more and less than 20%). In addition, the “herbicidal effect, N (Amaranthus retroflexus)” value in series [16] was 5 (Herbicidal ratio of 90% or more (almost completely withered)). The “herbicidal effect, G (Setaria viridis)” value in [17] was 3 (Herbicidal ratio of 40% or more and less than 70%). The “herbicidal effect, L (Apera spica-venti.)” value in series [18] was 1 (Herbicidal ratio of 5% or more and less than 20%). Moreover, the “herbicidal effect, H (Echinochloa crus-galli var. crus-galli)” value in series [19] is listed as 5 (Herbicidal ratio of 90% or more (almost completely withered)). For the same compound, the “herbicidal effect, R (Veronica persica)” value in series [20] is 4 (Herbicidal ratio of 70% or more and less than 90%). The “herbicidal effect, O (Chenopodium album)” value in series [21] was 5 (Herbicidal ratio of 90% or more (almost completely withered)).
As to `Cn1nnnc1NC(=O)c1ccc(C(F)(F)F)n2c(SCC3CC3)nnc12` [2-084], in series [1], the “C: Monochoria vaginalis” value is 4 (Herbicidal ratio of 70% or more and less than 90%). Moreover, in series [2], the “A: Echinochloa oryzicola Vasing. (herbicidal effect grade)” value was 5 (Herbicidal ratio of 90% or more (almost completely withered)). Further, the “B: Scirpus juncoides” value in series [3] is given as 5 (Herbicidal ratio of 90% or more (almost completely withered)). Moreover, the “effect on crop, c (Glycine max)” value in [4] was 1 (Herbicidal ratio of 5% or more and less than 20%). Also, the “effect on crop, f (Beta vulgaris ssp. vulgaris)” value in series [5] is 5 (Herbicidal ratio of 90% or more (almost completely withered)). For the same compound, the “effect on crop, e (Triticum aestivum)” value in series [6] was 3 (Herbicidal ratio of 40% or more and less than 70%). The “effect on crop, d (directly sowed Oryza sativa)” value in [7] is 3 (Herbicidal ratio of 40% or more and less than 70%). Also, the “effect on crop, g (Brassica campestris L.)” value in series [8] is 3 (Herbicidal ratio of 40% or more and less than 70%). The “herbicidal effect, F (Digitaria ciliaris)” value in [9] is given as 5 (Herbicidal ratio of 90% or more (almost completely withered)). Further, the “herbicidal effect, Q (Galium spurium)” value in [10] is 4 (Herbicidal ratio of 70% or more and less than 90%). The “herbicidal effect, M (Abutilon theophrasti)” value in series [11] is given as 5 (Herbicidal ratio of 90% or more (almost completely withered)). Besides, the “herbicidal effect, I (Avena fatua)” value in series [12] is 4 (Herbicidal ratio of 70% or more and less than 90%). Besides, the “herbicidal effect, P (Stellaria media)” value in [13] is given as 5 (Herbicidal ratio of 90% or more (almost completely withered)). Besides, in series [14], the “herbicidal effect, J (Alopecurus myosuroides)” value is 3 (Herbicidal ratio of 40% or more and less than 70%). Also, the “herbicidal effect, K (Lolium multiflorum Lam.)” value in series [15] is 3 (Herbicidal ratio of 40% or more and less than 70%). Further, in series [16], the “herbicidal effect, N (Amaranthus retroflexus)” value is 5 (Herbicidal ratio of 90% or more (almost completely withered)). Further, in series [17], the “herbicidal effect, G (Setaria viridis)” value is reported as 5 (Herbicidal ratio of 90% or more (almost completely withered)). Further, the “herbicidal effect, L (Apera spica-venti.)” value in series [18] is 4 (Herbicidal ratio of 70% or more and less than 90%). Moreover, the “herbicidal effect, H (Echinochloa crus-galli var. crus-galli)” value in series [19] was 5 (Herbicidal ratio of 90% or more (almost completely withered)). In addition, in series [20], the “herbicidal effect, R (Veronica persica)” value was 3 (Herbicidal ratio of 40% or more and less than 70%). In addition, the “herbicidal effect, O (Chenopodium album)” value in series [21] is recorded as 5 (Herbicidal ratio of 90% or more (almost completely withered)).
As to `CC(c1nnc2c(C(=O)Nc3nnnn3C)ccc(C(F)(F)F)n12)S(C)(=O)=O` (stereo not drawn) [2-054], the “C: Monochoria vaginalis” value in series [1] is 5 (Herbicidal ratio of 90% or more (almost completely withered)). For the same compound, the “A: Echinochloa oryzicola Vasing. (herbicidal effect grade)” value in series [2] is on record as 5 (Herbicidal ratio of 90% or more (almost completely withered)). For the same compound, the “B: Scirpus juncoides” value in series [3] was 5 (Herbicidal ratio of 90% or more (almost completely withered)). Moreover, in series [4] (foliage application), the “c (Glycine max) effect on crop grade” value is on record as 5 (Herbicidal ratio of 90% or more (almost completely withered)). For the same compound, the “f (Beta vulgaris ssp. vulgaris) effect on crop grade” value in series [5] (foliage application) is on record as 5 (Herbicidal ratio of 90% or more (almost completely withered)). Moreover, the “e (Triticum aestivum) effect on crop grade” value in series [6] (foliage application) is given as 5 (Herbicidal ratio of 90% or more (almost completely withered)). In addition, in series [7] (foliage application), the “d (directly sowed Oryza sativa) effect on crop grade” value is 5 (Herbicidal ratio of 90% or more (almost completely withered)). Besides, in series [8] (foliage application), the “g (Brassica campestris L.) effect on crop grade” value is given as 5 (Herbicidal ratio of 90% or more (almost completely withered)). The “b (Zea mays) effect on crop grade” value in series [22] is recorded as 5 (Herbicidal ratio of 90% or more (almost completely withered)). For the same compound, in series [9] (foliage application), the “F (Digitaria ciliaris) herbicidal effect grade” value is reported as 5 (Herbicidal ratio of 90% or more (almost completely withered)). In addition, in series [10] (foliage application), the “Q (Galium spurium) herbicidal effect grade” value was 4 (Herbicidal ratio of 70% or more and less than 90%). In series [11] (foliage application), the “M (Abutilon theophrasti) herbicidal effect grade” value was 5 (Herbicidal ratio of 90% or more (almost completely withered)). Further, in series [12] (foliage application), the “I (Avena fatua) herbicidal effect grade” value is reported as 5 (Herbicidal ratio of 90% or more (almost completely withered)). The “P (Stellaria media) herbicidal effect grade” value in series [13] (foliage application) is on record as 5 (Herbicidal ratio of 90% or more (almost completely withered)). Besides, the “J (Alopecurus myosuroides) herbicidal effect grade” value in series [14] (foliage application) was 4 (Herbicidal ratio of 70% or more and less than 90%). In addition, in series [15] (foliage application), the “K (Lolium multiflorum Lam.) herbicidal effect grade” value is 5 (Herbicidal ratio of 90% or more (almost completely withered)). Besides, the “N (Amaranthus retroflexus) herbicidal effect grade” value in series [16] (foliage application) is listed as 5 (Herbicidal ratio of 90% or more (almost completely withered)). For the same compound, the “G (Setaria viridis) herbicidal effect grade” value in series [17] (foliage application) is 5 (Herbicidal ratio of 90% or more (almost completely withered)). In addition, the “L (Apera spica-venti.) herbicidal effect grade” value in [18] (foliage application) is reported as 5 (Herbicidal ratio of 90% or more (almost completely withered)). In addition, the “H (Echinochloa crus-galli var. crus-galli) herbicidal effect grade” value in series [19] (foliage application) is 5 (Herbicidal ratio of 90% or more (almost completely withered)). Further, the “O (Chenopodium album) herbicidal effect grade” value in series [21] (foliage application) is given as 5 (Herbicidal ratio of 90% or more (almost completely withered)).

Values taken from patent US9708314B2, “Heterocyclic amide compound” (NISSAN CHEMICAL INDUSTRIES, LTD., priority 2013, dated 2017).
